According to PubChem BioAssay AID1918940 (Molecular Pharmacology Branch, DTP, NCI, 2023):
pIC50: −log10 of the molar value.

System: NCI-H211 complex spheroid viability
Experiment: Anticancer human tumor NCI-H211 cell line growth inhibition [LSD1];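 also: luminescent viability read after seven days of drug exposure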;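 as to viability, T/C: 100% = DMSO vehicle control viability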
Conditions: for pIC50: curve of first compound; for viability, T/C: stronger effect = lower value
Summary of the method: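 Complex spheroids of tumor cells with HUVEC and human MSCs, exposed to iadademstat combined with other agents. Each agent tested in half-log steps from near clinical Cmax (else 10 microM top), DMSO ≤0.25%.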

[1] = second compound 0.1 µM, first compound 0.000316 µM
[2] = second compound 0.1 µM, first compound 0.001 µM
[3] = second compound 0.1 µM, first compound 0.00316 µM
[4] = second compound 0.1 µM, first compound 0.01 µM
[5] = second compound 0.1 µM, first compound 0.0316 µM
[6] = second compound 0.1 µM, first compound 0.1 µM
[7] = second compound 0.316 µM, first compound 0.000316 µM
[8] = second compound 0.316 µM, first compound 0.001 µM
[9] = second compound 0.316 µM, first compound 0.00316 µM
[10] = second compound 0.316 µM, first compound 0.01 µM
[11] = second compound 0.316 µM, first compound 0.0316 µM
[12] = second compound 0.316 µM, first compound 0.1 µM
[13] = second compound 1 µM, first compound 0.000316 µM
[14] = second compound 1 µM, first compound 0.001 µM
[15] = second compound 1 µM, first compound 0.00316 µM
[16] = second compound 1 µM, first compound 0.01 µM
[17] = second compound 1 µM, first compound 0.0316 µM
[18] = second compound 1 µM, first compound 0.1 µM
[19] = second compound 3.16 µM, first compound 0.000316 µM
[20] = second compound 3.16 µM, first compound 0.001 µM
[21] = second compound 3.16 µM, first compound 0.00316 µM
[22] = second compound 3.16 µM, first compound 0.01 µM
[23] = second compound 3.16 µM, first compound 0.0316 µM
[24] = second compound 3.16 µM, first compound 0.1 µM
[25] = second compound 10 µM, first compound 0.000316 µM
[26] = second compound 10 µM, first compound 0.001 µM
[27] = second compound 10 µM, first compound 0.00316 µM
[28] = second compound 10 µM, first compound 0.01 µM
[29] = second compound 10 µM, first compound 0.0316 µM
[30] = second compound 10 µM, first compound 0.1 µM

Row | Structure (SMILES) | pIC50 (second compound 0.1 µM) | pIC50 (second compound 0.316 µM) | pIC50 (second compound 1 µM) | pIC50 (second compound 3.16 µM) | pIC50 (second compound 10 µM) | viability, T/C [3] [%] | viability, T/C [4] [%] | viability, T/C [5] [%] | viability, T/C [6] [%] | viability, T/C [9] [%] | viability, T/C [10] [%] | viability, T/C [11] [%] | viability, T/C [12] [%] | viability, T/C [15] [%] | viability, T/C [16] [%] | viability, T/C [17] [%] | viability, T/C [18] [%] | viability, T/C [21] [%] | viability, T/C [22] [%] | viability, T/C [23] [%] | further results
1 | CC(C)CC(NC(=O)C(Cc1ccccc1)NC(=O)c1cnccn1)B(O)O (stereo not given) + NC1CC1c1ccc(-c2cccc(O)c2)cc1 | 8.46 | 8.49 | 8.52 | 8.46 | 8.75 | 54.1 | 1.17 | 0.06 | 0.19 | 51.4 | 1.97 | 0.17 | 0.17 | 47.8 | 0.86 | 0.09 | 0.18 | 54.2 | 1.3 | 0.09 | viability, T/C [1]: 112%; viability, T/C [2]: 108%; viability, T/C [7]: 107%; viability, T/C [8]: 119%; viability, T/C [13]: 83.4%; viability, T/C [14]: 104%; viability, T/C [19]: 81.2%; viability, T/C [20]: 102%; viability, T/C [24]: 0.19%; viability, T/C [25]: 70.8%; viability, T/C [26]: 74.1%; viability, T/C [27]: 27.7%; viability, T/C [28]: 0.47%; viability, T/C [29]: 0.18%; viability, T/C [30]: 0.27%
2 | CC(C)CC(NC(=O)CNC(=O)c1cc(Cl)ccc1Cl)B1OC(=O)CC(CC(=O)O)(C(=O)O)O1 (stereo not given) + NC1CC1c1ccc(-c2cccc(O)c2)cc1 | 7.81 | 7.80 | 7.83 | 7.86 | 8.14 | 82.2 | 61.9 | 29.3 | 5.5 | 97.5 | 61.6 | 30 | 5.69 | 96.7 | 57.4 | 27.8 | 4.52 | 93.4 | 56.5 | 24.5 | viability, T/C [1]: 90.8%; viability, T/C [2]: 76.5%; viability, T/C [7]: 91.6%; viability, T/C [8]: 102%; viability, T/C [13]: 74.5%; viability, T/C [14]: 83.2%; viability, T/C [19]: 75.3%; viability, T/C [20]: 82.8%; viability, T/C [24]: 4.84%; viability, T/C [25]: 71%; viability, T/C [26]: 70.3%; viability, T/C [27]: 98.3%; viability, T/C [28]: 38.5%; viability, T/C [29]: 17.4%; viability, T/C [30]: 2.36%
3 | COc1cc(Nc2ncc3c(n2)-c2ccc(Cl)cc2C(c2c(F)cccc2OC)=NC3)ccc1C(=O)O + NC1CC1c1ccc(-c2cccc(O)c2)cc1 | > 8.50 | > 8.50 | > 8.50 | > 8.50 | > 8.50 | 28.2 | 5.72 | 4.04 | 3.29 | 37.7 | 6.96 | 3.41 | 4.23 | 33.4 | 6.82 | 3.89 | 4.49 | 21.8 | 7.56 | 4.05 | viability, T/C (second compound 0.1 µM, first compound 0.316 µM): 4.66%; viability, T/C (second compound 0.1 µM, first compound 1 µM): 3.94%; viability, T/C (second compound 0.316 µM, first compound 0.316 µM): 4.53%; viability, T/C (second compound 0.316 µM, first compound 1 µM): 3.46%; viability, T/C (second compound 1 µM, first compound 0.316 µM): 3.81%; viability, T/C (second compound 1 µM, first compound 1 µM): 3.95%; viability, T/C [24]: 3.76%; viability, T/C (second compound 3.16 µM, first compound 0.316 µM): 3.87%; viability, T/C (second compound 3.16 µM, first compound 1 µM): 3.54%; viability, T/C [27]: 21.8%; viability, T/C [28]: 6.88%; viability, T/C [29]: 4.59%; viability, T/C [30]: 4.93%; viability, T/C (second compound 10 µM, first compound 0.316 µM): 5.57%; viability, T/C (second compound 10 µM, first compound 1 µM): 4.21%
